Measurements: US20240105277A1, “DRUG DISCOVERY VIA REI[…] WITH THREE-D[…]” (priority 2022, published 2024)
Several values for one entry are separate records, joined by “and”; a condition that tells them apart may be missing. Equal values may be shown once. Read-outs that look alike come from different tables or passages of the source.

Assays:
SARS-CoV-2 M^pro [1] = molecular target: T1, SARS-CoV-2 M^pro (Severe acute respiratory syndrome coronavirus 2, UniProt P0DTD1); conditions: for Ki / kinact (10^−3 s^−1): saturation profile, with SEM
Method: (§1) Similar fluorescence assay was used to determine the time dependent IC50 curves. The plate with 10 μL of enzyme (1 μM) and 10 μL of the appropriate inhibitor dilution in 20 mM Tris-HCl, pH 7.35 with 1.25% DMSO was incubated at room temperature on a titer plate shaker with varying enzyme pre-incubation times (2, 15, 30, 45, 60 and 120 min) and centrifuged briefly at 1000 g just before incubation time ends. […] The equation Y=(Top-Bottom)/(1+1{circumflex over (0)}(X-log IC50))+Bottom; X=log(concentration) and Y=binding; was used in the nonlinear regression.

SARS-CoV-2 M^pro [2] = molecular target: T1, SARS-CoV-2 M^pro; conditions: for fold decrease in IC50, initial vs final inhibition value: t=2 minutes vs 2-hour preincubation
Method: To validate the computational leads, the remaining compounds were subjected to a primary SARS-CoV-2 M^pro activity inhibition screen in which they were pre-incubated with the enzyme and the initial velocities of cleavage of a FRET peptide were determined. The Z′-factor of the assay was 0.65, and the distribution of z-scores of compounds and positive (no inhibitor) and negative (no enzyme) controls is shown in FIG. 20.
For each compound, IC50 curves were generated using a continuous fluorescence assay. Reaction volumes of 40 μL were used in Corning half area 96-well plates. […] All the reactions were done in triplicate. For IC50 determination, the initial rate data was used, and the kinetic values were obtained directly from nonlinear regression of substrate-velocity curves in the presence of various concentrations of the inhibitor. The equation Y=(Top-Bottom)/(1+1{circumflex over (0)}(X-log IC50))+Bottom; X=log(concentration) and Y=binding; was used in the nonlinear regression.
as §1

Vero E6 (CRL-1586) cells = experiment: Cytotoxicity and cytopathic effect assay; format: cell-based; conditions: concentrations up to 10 μM, with or without PZ
Method: The in vitro antiviral activity of all four hits was evaluated in Vero E6 (CRL-1586) cells. The antiviral properties of the inhibitors were assessed in the absence and presence of an efflux pump inhibitor (CP-100356, labeled PZ). […] Because of high cytotoxic effects of these compounds at high doses, the high doses were removed in the EC50 curve fit for these compounds.
Briefly, on the day of infection, 5×10^3 Vero E6 cells were seeded in 20 μL cell culture medium (containing 5% FBS) in 384-well plates, using a MultiFlo FX multi-mode microplate dispenser (BioTek). The same day, compounds were added to the cells (25 μL/well, in EMEM with 5% FBS, 1% P/S), with 2 wells per concentration. After 2 h of compound preincubation, 5 μL of virus was added to the wells using a multi-channel pipette to MOI=0.1. Viruses were diluted in EMEM with 5% FBS, 1% P/S and was kept on ice until cells were ready for infection. Eight virus-only control wells were included as the […]. The virus plus cells and the cells were used to normalize the data set. After 72 h, 30 μL of CellTiter-Glo (Promega) was dispensed into each well by a MultiFlo FX multi-mode microplate dispenser. After a 10 min incubation at room temperature, the plates were loaded into a Perkin EnVision multi-mode microplate reader to read luminescence.

[3] = read-out: IC50 (μM) - 2 min, 2 min co-incubation of enzyme and inhibitor, with standard deviation
[4] = read-out: IC50 (μM) - 120 min, 120 min pre-incubation, with standard deviation

Row | SMILES | kinact/KI (SARS-CoV-2 M^pro [1]; inactivation efficiency) [M⁻¹ s⁻¹] | Ki (SARS-CoV-2 M^pro [1]) | kinact (10^−3 s^−1) (SARS-CoV-2 M^pro [1]) | IC50 (SARS-CoV-2 M^pro [2]; [3]) | IC50 (SARS-CoV-2 M^pro [2]; [4]) [µM] | fold decrease in IC50, initial vs final inhibition value (SARS-CoV-2 M^pro [2]) [fold] | cytotoxic effect (Vero E6 (CRL-1586) cells) | kinact/KI fold higher relative to the other compounds (SARS-CoV-2 M^pro [1]) | kinact/KI (M^−1 s^−1) (SARS-CoV-2 M^pro [1]; inactivation efficiency) | IC50 fold lower than the IC50s of the other compounds (SARS-CoV-2 M^pro [2]; preliminary analysis, 2 min) | IC50 (SARS-CoV-2 M^pro [2]; read-out: IC50 after a 2-hour preincubation, 2-hour preincubation) [µM]
1 | O=C(CCl)N1CCN(Cc2cccc3ccccc23)CC1 [Compound A] | 441 ± 297 | 11.5 µM | 5.1 ± 0.5 10^−3 s^−1 | 16.3 ± 1.3 µM | 0.3 ± 0.03 | 54 | less than other compounds |  |  |  | 
2 | CC(C)CC1CN(C(=O)CCl)CCN1Cc1cccc(Cl)c1 (centres unmarked) [D] |  | ≥ 62.5 µM | ≥16.6 10^−3 s^−1 | 16 ± 0.9 µM | 0.41 ± 0.06 | 39 |  |  |  |  | 
3 | COc1ccc(C2CC(c3ccccc3)=NN2C(=O)CCl)cc1OC (centres unmarked) [Compound C] |  | 5.27 µM and 5.3 µM | 23.5 ± 2.6 10^−3 s^−1 | 2.39 µM and 2.4 µM |  | 15 |  | at least 4 fold | 4,460 M^−1 s^−1 | at least 5 fold | 0.16
4 | O=C(CCl)N1CCN(Cc2cccc(Cl)c2)CC1 [Compound B] | 697 ± 697 | 5.97 µM and 6 µM | 4.2 ± 0.8 10^−3 s^−1 | 12.8 ± 5.1 µM | 0.4 ± 0.13 | 32 |  |  |  |  | 
